Where a name gives a salt, the structure may show the parent alone. Read-outs that look alike come from different tables or passages of the source. Each block holds one molecule with its values, some of them ahead of it.
Columns and labels:
[1] = system: human breast cancer cells; conditions: mice treated with conditioned medium in the presence of BAPN; cited from earlier work
[2] = system: cervical cancer cells; conditions: cervical cancer cells (Yang et al. 2013); cited from earlier work
[3] = system: 3D cell culture; conditions: 3D cell culture (not in 2D) (Schuetze, Roehrig et al. 2015); cited from earlier work
[4] = system: human cancer cell lines; conditions: several human cancer cell lines; cited from earlier work
[5] = system: MATN2 in MDA-MB-231 cells; assay: MATN2 level in treated cells; assay type: cell-based, human
Protocol: All samples were fixed in 4% paraformaldehyde (EMS). Fixed cells were then subjected to incubation with primary antibodies followed by fluorescence secondary antibodies (Life Technologies) to visualise extracellular proteins. Anti-human MATN2 (R&D) antibody was used at 1:100 dilutions. DAPI (Sigma) was used to stain DNA.
Proteins were extracted from cultured cells using cell lysis buffer (Cell Signalling Technology) with the addition of protease and phosphatase inhibitor cocktails (Pierce). Protein concentrations were measured using Pierce 660 nm protein assay reagent and SpectaMax M5 plate reader. […] Separated proteins were transferred to nitrocellulose membranes using a Trans-Blot turbo transfer system (Bio-Rad). Following blocking with Odyssey blocking buffer (Li-COR), membranes were incubated with two primary antibodies of different species at 4° C. over night. Corresponding fluorescence secondary antibodies (Li-COR) of different excitation and emission wavelengths were used to visualize the protein of interest on an Odyssey CLx infrared imaging system (Li-COR). Quantification of band fluorescent intensity was achieved using Li-COR ImageStudio. The following primary antibodies were used, anti-LOX (Sigma), anti-human MATN2 (R&D), anti-EGFR and anti-pY1068EGFR (Cell Signalling Technology), and anti-GAPDH (Millipore).

[6] = system: human breast cancer cells; conditions: cited from earlier work
[7] = system: diet-induced obesity in rats; conditions: diet-induced obesity in rats (Miana, Galan et al. 2015); cited from earlier work
[8] = system: schistosomiasis; conditions: cited from earlier work
[9] = system: experimental pulmonary hypertension; conditions: Nave, Mizikova et al. 2014; cited from earlier work
[10] = system: adipose tissue; conditions: Heiberg, Khan et al. 2009; cited from earlier work
[11] = molecular target: MAO-A (Homo sapiens (Human), UniProt P21397); assay: Monoamine oxidase A (MAO-A) selectivity assay; assay type: biochemical
[12] = system: angiotensin II-induced cardiac hypertrophy; conditions: in vivo (Ohmura, Yasukawa et al. 2012); cited from earlier work
[13] = system: Staphylococcus Aureus; conditions: Beerlage, Greb et al. 2013; cited from earlier work
[14] = system: TGF beta signalling (pSMAD2); assay: TGF beta signalling (pSMAD2); assay type: cell-based; conditions: FIG. 15b
[15] = molecular target: MAO-B (Homo sapiens (Human), UniProt P27338); assay: Monoamine oxidase B (MAO-B) selectivity assay; assay type: biochemical
[16] = system: myocardial fibrosis; conditions: mouse model (Rosin, Sopel et al. 2015); cited from earlier work
[17] = in vivo; conditions: female, mouse, po, 50 mg/kg
[18] = molecular target: LOXL2 (Homo sapiens (Human), UniProt Q9Y4K0); assay: LOXL2 enzyme activity assay (ROS-Glo; pre-incubation 20 min Method (a), 60 min Method (b), 20 h Method (c)); assay type: biochemical
[19] = in vivo; conditions: rat, po, 20 mg/kg
[20] = read-out: LOXL2 IC50 b) 1 hr, pre-incubation 1 hr, Method (b)

MAO-A, sequence (P21397 whole entry): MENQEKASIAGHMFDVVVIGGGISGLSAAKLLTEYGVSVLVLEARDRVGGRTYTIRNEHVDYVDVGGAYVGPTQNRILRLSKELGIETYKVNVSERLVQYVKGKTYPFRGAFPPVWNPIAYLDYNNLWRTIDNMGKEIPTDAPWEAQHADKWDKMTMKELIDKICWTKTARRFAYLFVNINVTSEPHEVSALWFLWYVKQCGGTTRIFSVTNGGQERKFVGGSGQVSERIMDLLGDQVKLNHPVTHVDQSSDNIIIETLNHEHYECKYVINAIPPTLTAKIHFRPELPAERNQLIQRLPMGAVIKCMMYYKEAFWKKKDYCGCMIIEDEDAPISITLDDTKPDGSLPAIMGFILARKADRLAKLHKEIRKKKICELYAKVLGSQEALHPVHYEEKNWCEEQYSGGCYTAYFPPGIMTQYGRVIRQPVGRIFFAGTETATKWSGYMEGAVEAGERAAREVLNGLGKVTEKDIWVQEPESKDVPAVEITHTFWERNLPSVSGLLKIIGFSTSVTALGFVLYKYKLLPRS
LOXL2, sequence (Q9Y4K0 26-774, species assumed): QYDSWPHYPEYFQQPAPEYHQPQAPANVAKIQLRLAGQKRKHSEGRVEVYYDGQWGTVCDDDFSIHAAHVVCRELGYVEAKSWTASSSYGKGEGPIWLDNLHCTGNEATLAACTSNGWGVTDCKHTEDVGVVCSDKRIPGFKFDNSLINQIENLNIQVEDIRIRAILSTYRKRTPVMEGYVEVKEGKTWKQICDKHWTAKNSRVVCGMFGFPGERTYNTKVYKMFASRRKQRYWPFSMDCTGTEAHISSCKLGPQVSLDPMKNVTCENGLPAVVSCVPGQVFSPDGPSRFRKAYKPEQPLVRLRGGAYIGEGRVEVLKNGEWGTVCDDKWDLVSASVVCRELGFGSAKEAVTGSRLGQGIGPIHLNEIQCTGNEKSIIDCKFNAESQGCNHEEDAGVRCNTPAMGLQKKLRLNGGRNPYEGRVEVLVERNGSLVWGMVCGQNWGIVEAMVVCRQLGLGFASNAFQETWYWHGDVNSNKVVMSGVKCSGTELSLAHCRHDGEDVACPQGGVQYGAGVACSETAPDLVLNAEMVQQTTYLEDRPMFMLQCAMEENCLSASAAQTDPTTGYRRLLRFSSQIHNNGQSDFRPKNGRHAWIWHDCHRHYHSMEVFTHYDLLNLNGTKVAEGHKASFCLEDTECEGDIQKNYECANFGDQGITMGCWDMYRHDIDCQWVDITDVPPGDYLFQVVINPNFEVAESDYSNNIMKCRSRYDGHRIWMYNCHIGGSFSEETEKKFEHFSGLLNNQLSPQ
MAO-B, sequence (P27338 whole entry): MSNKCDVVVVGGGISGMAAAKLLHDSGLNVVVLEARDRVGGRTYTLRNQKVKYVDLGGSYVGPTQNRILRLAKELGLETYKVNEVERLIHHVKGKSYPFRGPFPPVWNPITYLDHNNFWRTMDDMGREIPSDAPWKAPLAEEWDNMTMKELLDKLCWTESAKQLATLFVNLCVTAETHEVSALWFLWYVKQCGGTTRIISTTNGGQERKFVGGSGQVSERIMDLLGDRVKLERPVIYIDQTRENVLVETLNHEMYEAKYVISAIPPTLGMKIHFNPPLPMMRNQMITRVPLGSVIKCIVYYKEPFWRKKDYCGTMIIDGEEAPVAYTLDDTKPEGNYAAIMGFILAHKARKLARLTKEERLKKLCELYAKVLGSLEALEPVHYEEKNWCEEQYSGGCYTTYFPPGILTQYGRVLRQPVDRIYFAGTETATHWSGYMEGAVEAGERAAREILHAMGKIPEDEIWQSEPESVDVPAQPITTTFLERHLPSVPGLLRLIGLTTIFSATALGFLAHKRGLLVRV

Structure (SMILES): N#CCCN [BAPN, beta-aminopropionitrile]
enhanced colonisation of the lung [1]: blocked
hypoxia-induced invasion and migration mediated by the EMT [2]: can be inhibited
sensitivity to doxorubicin and paclitaxel [3]: can be restored
in vitro invasion activity [4]: blocks the in vitro invasion activity
MATN2 level ([5]; FIG. 15b): MATN2 reduction
MATN2 level ([5]; MDA-MB-231 cells, at a much higher concentration, FIG. 13): same effect
metastatic tumour growth ([6]; breast cancer cells in mice (Erler et al, 2006)): can block metastatic tumour growth
invasion and metastasis ([6]; orthotopic human breast tumours or circulating human breast cancer cells, CRC, HCC, LKB1-mutant lung adenocarcinoma, anaplastic thyroid cancer, PDAC in mice): significantly reduced invasion and metastasis
body weight gain [7]: reduces body weight gain
metabolic profile [7]: improves the metabolic profile
size of the granulomas ([8]; Giboda, Zenka et al. 1992): reduces the size of the granulomas
egg load ([8]; in combination with antiparasitic drug PZQ compared to PZQ alone): reduces the egg load
symptoms of experimental pulmonary hypertension [9]: reduces the symptoms
local adipose tissue inflammation [10]: reduces local adipose tissue inflammation
inhibition of MAO-A [11]: neither inhibits
cardiac hypertrophy [12]: inhibits angiotensin II-induced cardiac hypertrophy
abscesses morphology and collagenisation [13]: influences resulting abscesses morphology and collagenisation
TGF beta signalling as indicated by pSMAD2 [14]: increased TGF beta signalling
inhibition of MAO-B [15]: neither inhibits
myocardial fibrosis [16]: reduces myocardial fibrosis

Structure (SMILES): CS(=O)(=O)c1cc(-c2ccccc2)cc(S(=O)(=O)c2ccc(CN)s2)c1 [Example 68, (5-((5-(Methylsulfonyl)-[1,1′-biphenyl]-3-yl)sulfonyl)thiophen-2-yl)methanamine]
MATN2 level ([5]; FIG. 15b): MATN2 reduction

Structure (SMILES): Cc1ccc(-c2cc(S(=O)(=O)c3ccc(CN)s3)ccc2S(C)(=O)=O)cc1 [Example 82, (5-((4′-Methyl-6-(methylsulfonyl)-[1,1′-biphenyl]-3-yl)sulfonyl)thiophen-2-yl)methanamine Hydrochloride]
AUC [17]: 12 µM·h
Cmax [17]: 9.4 µM
IC50 [15]: > 100000 nM

Structure (SMILES): NCc1ncc([S+]([O-])c2ccccc2)s1 (stereo not shown) [Example 95, (5-(Phenylsulfinyl)thiazol-2-yl)methanamine Hydrochloride]
IC50 ([18]; read-out: LOXL2 IC50 c) 20 hr, pre-incubation 20 hr, Method (c)): 1000 nM

Structure (SMILES): NCc1ncc(S(=O)(=O)c2cc3ccccc3c3ccccc23)s1 [Example 97, (5-(Phenanthren-9-ylsulfonyl)thiazol-2-yl)methanamine Hydrochloride]
IC50 [15]: > 100000 nM

Structure (SMILES): NCc1ncc(S(=O)(=O)c2cc(C(=O)O)cc(-c3ccccc3)c2)s1 [Example 126, 5-((2-(Aminomethyl)thiazol-5-yl)sulfonyl)-[1,1′-biphenyl]-3-carboxylic Acid Ditrifluoroacetate]
AUC [19]: 106 µM·h
Cmax [19]: 35 µM
AUC [17]: 413 µM·h
Cmax [17]: 100 µM
IC50 [11]: > 100000 nM
IC50 [15]: > 100000 nM

Structure (SMILES): Cn1cc(-c2cc(F)cc(S(=O)(=O)c3cnc(CN)s3)c2)cn1 [Example 131, (5-(3-Fluoro-5-(1-methyl-1H-pyrazol-4-yl)phenyl)sulfonyl)thiazol-2-yl)methanamine Trihydrochloride]
IC50 [11]: > 100000 nM
IC50 [15]: > 100000 nM

Structure (SMILES): COc1cc(-c2cn[nH]c2)cc(S(=O)(=O)c2cnc(CN)s2)c1 [Example 142, (5-((3-methoxy-5-(1H-pyrazol-4-yl)phenyl)sulfonyl)thiazol-2-yl)methanamine tri-trifluoroacetate]
IC50 [18, 20]: 410 nM

Structure (SMILES): Cn1cc(-c2cc(C(=O)O)cc(S(=O)(=O)c3cnc(CN)s3)c2)cn1 [Example 150, 3-(2-(Aminomethyl)thiazol-5-yl)sulfonyl)-5-(1-methyl-1H-pyrazol-4-yl)benzoic Acid Trihydrochloride]
AUC [17]: 38 µM·h
Cmax [17]: 10 µM
IC50 [11]: > 100000 nM
IC50 [15]: > 100000 nM

Structure (SMILES): NCc1ncc(S(=O)(=O)c2cc(C(=O)NCCO)cc(-c3ccccc3)c2)s1 [Example 152, 5-((2-(Aminomethyl)thiazol-5-yl)sulfonyl)-N-(2-hydroxyethyl)-[1,1′-biphenyl]-3-carboxamide Dihydrochloride]
IC50 [18, 20]: 560 nM

Structure (SMILES): CCNC(=O)c1cc(-c2cnn(C)c2)cc(S(=O)(=O)c2cnc(CN)s2)c1 [Example 154]
IC50 [18, 20]: 150 nM

The next lines start with the values.

IC50 [18, 20]: 19000 nM
Structure (SMILES): Cn1c(S(=O)(=O)c2ccc3ccccc3c2)cnc1CN [Example 123, (1-Methyl-5-(naphthalen-2-ylsulfonyl)-1H-imidazol-2-yl)methanamine Dihydrochloride]

IC50 [18, 20]: 120 nM
Structure (SMILES): NCc1ccc(S(=O)(=O)c2cccc(S(=O)(=O)N3CCCC3c3ccccc3)c2)s1 (stereo not shown) [Example 124, (5-((3-((2-Phenylpyrrolidin-1-yl)sulfonyl)phenyl)sulfonyl)thiophen-2-yl)methanamine Hydrochloride]

IC50 [11]: > 100000 nM
IC50 [15]: > 100000 nM
Structure (SMILES): CN(C)C(=O)c1cc(-c2ccccc2)cc(S(=O)(=O)c2cnc(CN)s2)c1 [Example 125, 5-((2-(Aminomethyl)thiazol-5-yl)sulfonyl)-N,N-dimethyl-[1,1′-biphenyl]-3-carboxamide Dihydrochloride]

IC50 [18, 20]: 480 nM
Structure (SMILES): CS(=O)(=O)c1cc(S(=O)(=O)c2ccc(CN)s2)ccc1-c1ccccc1 [Example 129, (5-((2-(Methylsulfonyl)-[1,1′-biphenyl]-4-yl)sulfonyl)thiophen-2-yl)methanamine Hydrochloride]

IC50 [18, 20]: 72 nM
Structure (SMILES): COCn1cc(-c2cc(OC)cc(S(=O)(=O)c3cnc(CN)s3)c2)cn1 [Example 141, (5-((3-Methoxy-5-(1-(methoxymethyl)-1H-pyrazol-4-yl)phenyl)sulfonyl)thiazol-2-yl)methanamine tri-trifluoroacetate]

IC50 ([18]; pre-incubation 1 hr, Method (b)): 260 nM
Structure (SMILES): NCc1ncc(S(=O)(=O)c2cc(C(=O)N3CCC(O)C3)cc(-c3ccccc3)c2)s1 (stereo not shown) [Example 149, (5-((2-(Aminomethyl)thiazol-5-yl)sulfonyl)-[1,1′-biphenyl]-3-yl)(3-hydroxypyrrolidin-1-yl)methanone Dihydrochloride]

IC50 [18, 20]: 77 nM
Structure (SMILES): CCNC(=O)c1cc(-c2ccccc2)cc(S(=O)(=O)c2cnc(CN)s2)c1 [Example 151, 5-((2-(Aminomethyl)thiazol-5-yl)sulfonyl)-N-ethyl-[1,1′-biphenyl]-3-carboxamide Dihydrochloride]

IC50 [18, 20]: 200 nM
Structure (SMILES): Cn1cc(-c2cc(C(=O)N3CC[C@@H](O)C3)cc(S(=O)(=O)c3cnc(CN)s3)c2)cn1 [Example 156, (R)-(3-(2-(Aminomethyl)thiazol-5-yl)sulfonyl)-5-(1-methyl-1H-pyrazol-4-yl)phenyl)(3-hydroxypyrrolidin-1-yl)methanone tri hydrochloride]

IC50 [18, 20]: 310 nM
Structure (SMILES): CN(C)C(=O)c1cc(-c2ccccc2)cc(S(=O)(=O)c2csc(CN)n2)c1 [Example 162, 5-((2-(Aminomethyl)thiazol-4-yl)sulfonyl)-N,N-dimethyl-[1,1′-biphenyl]-3-carboxamide Hydrochloride]

IC50 [18, 20]: 1200 nM
Structure (SMILES): CN(C)C(=O)c1cc(-c2cnn(C)c2)cc(S(=O)(=O)c2csc(CN)n2)c1 [Example 164, 3-(2-(Aminomethyl)thiazol-4-yl)sulfonyl)-N,N-dimethyl-5-(1-methyl-1H-pyrazol-4-yl)benzamide Hydrochloride]
